{"source": "paper PMC2673211", "about": "“Nitric oxide activates ATP-sensitive potassium channels in mammalian sensory neurons: action by direct S-nitrosylation” (Molecular Pain, 2009)", "key": {"Kir6.2ΔC36 channels": {"biological_target": "T1, Kir6.2ΔC36 channels (Rattus norvegicus, UniProt P70673)", "T1 construct": "A truncated form of Kir6.2 lacking the last 36 amino acids at the C-terminus; expressed in transfected cells; host or cells: COS7 cells, pcDNA3.1(-) Kir6.2 alone, GFP cDNA co-transfected as a separate reporter", "T1 sequence (P70673 1-354 limits assumed)": "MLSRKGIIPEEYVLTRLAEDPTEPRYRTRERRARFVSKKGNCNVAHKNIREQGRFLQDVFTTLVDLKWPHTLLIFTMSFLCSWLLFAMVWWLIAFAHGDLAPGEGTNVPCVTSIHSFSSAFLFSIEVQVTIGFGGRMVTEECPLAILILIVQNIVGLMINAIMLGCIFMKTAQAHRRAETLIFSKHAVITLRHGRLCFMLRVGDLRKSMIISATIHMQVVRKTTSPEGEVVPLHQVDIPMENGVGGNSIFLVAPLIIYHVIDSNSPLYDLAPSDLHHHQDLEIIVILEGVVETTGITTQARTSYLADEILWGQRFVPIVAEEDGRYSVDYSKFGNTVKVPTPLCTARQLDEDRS", "experiment": "Inside-out patch recording of truncated Kir6.2 channels expressed in COS7 cells", "format": "biochemical", "details": "SNAP 1 mM in the presence of 1 mM [ATP]i; n = 6", "experimental": "KATP channel-deficient COS7 cells were plated at a density of 3 × 10^5/dish (35 mm in diameter) and cultured in Dulbecco's modified Eagle's medium supplemented with 10% fetal calf serum. Rat Kir6.2 (GenBank X97041) and rat SUR1 (GenBank X97279) cDNAs were used for expression study. A truncated form of Kir6.2 lacking the last 36 amino acids at the C-terminus was obtained by polymerase chain reaction amplification. Polymerase chain reaction products were cloned into the pCR3.1 vector by using the TA cloning system (Invitrogen Corp., Carlsbad, CA, USA) and then cloned into the pcDNA3.1 (-) vector (Invitrogen Corp.) for mammalian expression. […]\nWe recorded current passing through single channels in inside-out or cell-attached patch configurations. […]\n(§1) We recorded single channel currents at room temperature (20–25°C) using an Axon CNS Multiclamp 700B amplifier, digitized them using an analog-to-digital converter (Axon CNS DigiData 1440A; Axon Instruments, Foster, CA), and stored them into a PC. […] Channel open probability (Po) was determined from the ratios of the area under the peaks in the amplitude histograms fitted by a Gaussian distribution. We calculated channel activity as NPo (where N is the number of observed channels in the patch) from data samples of either 30 s (in inside-out recordings), or 60 s (in cell-attached recordings), in the steady state. […]"}, "[1]": {"biological_target": "T2, SUR1-C717S/Kir6.2 channels (Rattus norvegicus, UniProt P70673+Q09429, C717S)", "T2 construct": "A full-length Kir cDNA and a full-length SUR cDNA were subcloned into the mammalian expression vector; expressed in transfected cells; host or cells: COS7 cells, pcDNA3.1(-) vectors, GFP cDNA co-transfected as a separate reporter", "T2 sequence (Q09429 whole entry C717S)": "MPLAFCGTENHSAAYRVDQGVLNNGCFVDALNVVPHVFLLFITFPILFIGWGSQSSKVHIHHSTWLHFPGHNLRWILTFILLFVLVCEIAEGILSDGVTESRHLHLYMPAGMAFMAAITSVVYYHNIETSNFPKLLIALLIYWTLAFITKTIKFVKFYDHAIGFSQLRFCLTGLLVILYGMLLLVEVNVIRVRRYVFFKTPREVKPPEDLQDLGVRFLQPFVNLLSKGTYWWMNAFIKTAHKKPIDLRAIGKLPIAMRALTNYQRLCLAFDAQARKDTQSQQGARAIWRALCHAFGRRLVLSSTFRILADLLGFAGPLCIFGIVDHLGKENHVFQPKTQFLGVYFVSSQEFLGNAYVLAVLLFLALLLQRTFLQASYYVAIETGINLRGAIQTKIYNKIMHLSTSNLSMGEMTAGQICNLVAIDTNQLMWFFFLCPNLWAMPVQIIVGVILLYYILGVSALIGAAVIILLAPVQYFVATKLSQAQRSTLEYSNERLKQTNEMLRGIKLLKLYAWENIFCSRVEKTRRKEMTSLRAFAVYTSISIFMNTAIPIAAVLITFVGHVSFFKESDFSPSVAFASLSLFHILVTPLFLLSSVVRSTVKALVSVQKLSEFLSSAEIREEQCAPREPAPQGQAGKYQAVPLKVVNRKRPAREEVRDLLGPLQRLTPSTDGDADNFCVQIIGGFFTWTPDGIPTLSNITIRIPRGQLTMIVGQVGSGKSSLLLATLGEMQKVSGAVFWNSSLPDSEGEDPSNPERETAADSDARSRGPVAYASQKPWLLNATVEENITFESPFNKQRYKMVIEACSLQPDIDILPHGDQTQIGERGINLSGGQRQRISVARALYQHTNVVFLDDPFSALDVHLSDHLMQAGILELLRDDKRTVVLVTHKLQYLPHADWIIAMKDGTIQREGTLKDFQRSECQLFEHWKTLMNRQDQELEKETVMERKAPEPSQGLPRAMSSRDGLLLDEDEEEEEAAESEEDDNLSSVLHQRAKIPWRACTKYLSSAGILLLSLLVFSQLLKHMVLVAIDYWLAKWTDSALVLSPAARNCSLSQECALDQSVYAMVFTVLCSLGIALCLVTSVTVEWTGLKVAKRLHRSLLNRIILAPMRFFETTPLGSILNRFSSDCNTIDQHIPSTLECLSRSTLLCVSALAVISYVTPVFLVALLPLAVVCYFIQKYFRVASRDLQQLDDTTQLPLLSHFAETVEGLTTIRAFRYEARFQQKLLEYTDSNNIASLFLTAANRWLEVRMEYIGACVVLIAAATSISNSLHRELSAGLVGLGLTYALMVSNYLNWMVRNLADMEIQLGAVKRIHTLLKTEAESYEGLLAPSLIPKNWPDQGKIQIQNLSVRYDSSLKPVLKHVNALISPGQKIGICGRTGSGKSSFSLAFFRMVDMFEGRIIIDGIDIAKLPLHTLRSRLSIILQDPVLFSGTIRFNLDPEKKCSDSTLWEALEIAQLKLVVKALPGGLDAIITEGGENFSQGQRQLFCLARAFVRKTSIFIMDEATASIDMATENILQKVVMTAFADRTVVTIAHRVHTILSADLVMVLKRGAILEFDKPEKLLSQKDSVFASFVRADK", "T2 sequence (P70673 whole entry)": "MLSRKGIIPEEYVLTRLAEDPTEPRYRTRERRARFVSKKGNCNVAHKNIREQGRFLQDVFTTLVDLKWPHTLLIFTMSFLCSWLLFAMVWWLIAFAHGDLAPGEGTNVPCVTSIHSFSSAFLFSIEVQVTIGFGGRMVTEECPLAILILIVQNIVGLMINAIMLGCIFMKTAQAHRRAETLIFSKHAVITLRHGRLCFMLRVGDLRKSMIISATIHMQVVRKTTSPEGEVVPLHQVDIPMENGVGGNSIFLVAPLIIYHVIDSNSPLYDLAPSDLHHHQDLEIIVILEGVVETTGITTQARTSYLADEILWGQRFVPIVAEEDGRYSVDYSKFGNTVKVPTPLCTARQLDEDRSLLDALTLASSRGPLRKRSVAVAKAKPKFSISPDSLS", "experiment": "Inside-out patch recording of mutated channels expressed in COS7 cells", "format": "biochemical", "experimental": "KATP channel-deficient COS7 cells were plated at a density of 3 × 10^5/dish (35 mm in diameter) and cultured in Dulbecco's modified Eagle's medium supplemented with 10% fetal calf serum. Rat Kir6.2 (GenBank X97041) and rat SUR1 (GenBank X97279) cDNAs were used for expression study. A truncated form of Kir6.2 lacking the last 36 amino acids at the C-terminus was obtained by polymerase chain reaction amplification. Polymerase chain reaction products were cloned into the pCR3.1 vector by using the TA cloning system (Invitrogen Corp., Carlsbad, CA, USA) and then cloned into the pcDNA3.1 (-) vector (Invitrogen Corp.) for mammalian expression. Point mutation of cysteine at position 717 (C717), C806, C1378, C1446, and C1491 within SUR1 to serine (C717S, C806S, C1378S, C1446S, and C1491S) was performed by using the Site-Directed Mutagenesis system (Invitrogen Corp.). All cDNA products were sequenced by using the BigDye terminator cycle sequencing kit and an ABI PRISM 377 DNA sequencer (Applied Biosystems, Foster City, CA) to confirm the sequence. A full-length Kir cDNA and a full-length SUR cDNA were subcloned into the mammalian expression vector pcDNA3.1 (-). For electrophysiological recordings, either wild-type or mutated pcDNA3.1 (-) Kir6.2 alone (1 μg), or pcDNA3.1 (-) Kir6.2 (1 μg) plus pcDNA3.1 (-) SUR1 (3 μg) were transfected into COS7 cells with green fluorescent protein cDNA as a reporter gene by using lipofectamine and Opti-MEN 1 reagents (Life Technologies Inc., Rockville, MD) according to the manufacturer's instructions. After transfection, cells were cultured at 37°C with 95% air and 5% CO2 for 48–72 h before being subjected to electrophysiological recordings.\nWe recorded current passing through single channels in inside-out or cell-attached patch configurations. In cell-attached patches, both bath and pipette (extracellular) solutions were composed of the following: 140 mM KCl, 10 mM HEPES, 5.5 mM dextrose, and 1 mM EGTA. In inside-out patches, the bath (intracellular) solution contained 140 mM KCl, 1.2 mM MgCl2, 10 mM HEPES, 1.5 mM EGTA and 5.5 mM dextrose. The pipette (extracellular) solution was of the same composition as that used in cell-attached recordings. The pH of all solutions was adjusted to 7.4 with KOH. Osmolality was adjusted approximately to 300 mOsm/l by adding sucrose if necessary. We pulled patch micropipettes from borosilicate glass capillaries using a Flaming/Brown micropipette puller, model P-97 (Sutter, San Rafael, CA) and flame polished them with a microforge polisher (Narishige, Tokyo, Japan) prior to use. Their resistance ranged between 3 and 6 MΩ when filled with the internal solution, and placed into the recording solutions.\nas §1, with “PC. Sampling frequency of single-channel data was 5 KHz with a low-pass filter (1 KHz). We used pClamp version 10.2 software (Axon Instruments) for data acquisition and analysis.” for “PC.”"}}}
{"substance": "S-nitroso-N-acetylpenicillamine [SNAP]", "values": [{"measurement": "effect on Kir6.2ΔC36 currents", "setting": "Kir6.2ΔC36 channels", "value": "fails to activate"}, {"measurement": "effect on recombinant channel activity", "setting": "[1]; SNAP 1 mM in the presence of 1 mM [ATP]i", "value": "significantly activated"}, {"measurement": "potency in activating the channel compared with the wild-type SUR1/Kir6.2 channel", "setting": "[1]; SNAP, n = 8, p < 0.02 vs. wild type", "value": "significantly less potent"}]}
